Each structure is given as a SMILES string.

The first experiment deals with T1, Gonadotropin-releasing hormone receptor (Homo sapiens, UniProt P30968).
T1 sequence (P30968 whole entry): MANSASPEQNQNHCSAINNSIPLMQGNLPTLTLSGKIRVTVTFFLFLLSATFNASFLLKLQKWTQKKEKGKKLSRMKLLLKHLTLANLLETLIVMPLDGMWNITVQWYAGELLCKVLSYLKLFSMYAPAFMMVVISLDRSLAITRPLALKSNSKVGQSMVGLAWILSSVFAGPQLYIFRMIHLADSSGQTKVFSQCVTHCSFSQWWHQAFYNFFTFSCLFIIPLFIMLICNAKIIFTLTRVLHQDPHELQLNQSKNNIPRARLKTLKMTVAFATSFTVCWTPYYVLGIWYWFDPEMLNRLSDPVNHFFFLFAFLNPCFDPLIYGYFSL
Briefly: Inhibitory activity against human GnRH receptor using des-Gly10[125I]Tyr5, D-Leu, NMeLeu, Pro-NEt]GnRH radioligand.
As to `Cc1cc(C)cc(-c2[nH]c3ccccc3c2CCNCCCCc2ccc(NS(C)(=O)=O)cc2)c1`, the 50% inhibitory concentration (IC50) – broadly, the concentration that inhibits the measured activity by half – was determined as 0.007 µM.

The compound `Cc1cc(-c2c(O)nc3ccc(C(=O)Nc4ccncn4)cc3c2OCC[C@@H]2CCN2)cc(C)c1C` displayed an IC50 of 0.0004 µM.

The target of another experiment is T2, Gonadotropin-releasing hormone receptor (Rattus norvegicus, UniProt P30969).
T2 sequence (P30969 whole entry): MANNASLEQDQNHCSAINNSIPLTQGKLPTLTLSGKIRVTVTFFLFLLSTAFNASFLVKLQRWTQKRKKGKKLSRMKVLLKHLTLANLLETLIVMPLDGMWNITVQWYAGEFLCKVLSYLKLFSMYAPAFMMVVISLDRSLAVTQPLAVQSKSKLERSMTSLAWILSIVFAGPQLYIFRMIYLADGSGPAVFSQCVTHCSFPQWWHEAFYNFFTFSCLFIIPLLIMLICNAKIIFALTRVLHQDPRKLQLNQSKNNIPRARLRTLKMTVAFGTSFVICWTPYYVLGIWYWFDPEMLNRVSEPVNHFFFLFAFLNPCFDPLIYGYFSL
Kind of experiment: Binding affinity against gonadotropin-releasing hormone receptor of rat.
For the compound `CCC(CC)OC(=O)c1cn(Cc2ccccc2F)c2c(C#N)c(-c3ccc(OC4CCCC4)cc3)c(CN(C)CCc3ccccn3)n2c1=O`, the inhibitory constant (Ki) (in general, the dissociation constant of the complex between target and ligand, obtained from inhibition or displacement) is 7.6 µM.

`CCC(CC)OC(=O)c1cn(Cc2ccccc2F)c2c(C#N)c(-c3ccc(OCC(C)C)cc3)c(CN(C)CCc3ccccn3)n2c1=O` returned a Ki of 7.3 µM.

Take `CCC(CC)OC(=O)c1cn(Cc2ccccc2F)c2c(C#N)c(-c3ccc(OC)cc3)c(CN(C)CCc3ccccn3)n2c1=O`: the affinity, expressed as Ki, was 7.7 µM.

In turn, `CN(CCc1ccccn1)Cc1c(-c2ccc(OC3CCCC3)cc2)c(C#N)c2n(Cc3ccccc3F)cc(C(=O)OC3CCCC3)c(=O)n12` gave a Ki of 8.9 µM.

For the compound `Cc1cc(C)cc(-c2[nH]c3ccccc3c2CCNCCCCc2ccc(NS(C)(=O)=O)cc2)c1`, the IC50 was 0.17 µM.

The compound `Cc1cc(-c2c(O)nc3ccc(C(=O)Nc4ccncn4)cc3c2OCC[C@@H]2CCN2)cc(C)c1C` came in with a 50% inhibitory concentration (IC50) of 0.004 µM.

The next experiment addresses T1, Gonadotropin-releasing hormone receptor. Kind of experiment: Binding affinity against human GnRH receptor expressed in HEK293 cells using des-Gly10[125I]Tyr5, D-Leu, NMeLeu, Pro-NEt GnRH as radioligand. The experiment is classed as cell-based.
`CCOC(=O)c1cn(Cc2ccccc2F)c2c(C#N)c(-c3ccc(OC)cc3)c(CN(C)CCc3ccccn3)n2c1=O` had a Ki of 0.5 µM.

`CCOC(=O)c1cn(Cc2ccc(F)cc2F)c2c(C#N)c(-c3ccc(OCC(C)C)cc3)c(CN(C)CCc3ccccc3)n2c1=O`: the Ki was greater than 50 µM.

With `CCOC(=O)c1cn(Cc2ccccc2OC)c2c(C#N)c(-c3ccc(OC)cc3)c(CN(C)CCc3ccccn3)n2c1=O`, the affinity, expressed as Ki, was 6.6 µM.

Compound `CCC(CC)OC(=O)c1cn(Cc2ccccc2F)c2c(C#N)c(-c3ccc(OC4CCCC4)cc3)c(CN(C)CCc3ccccn3)n2c1=O` had a Ki of 0.031 µM.

Turning to `COc1ccc(-c2c(C#N)c3n(Cc4ccccc4F)cc(C(=O)OC(C)C)c(=O)n3c2CN(C)CCc2ccccn2)cc1`, the inhibition constant (Ki) was found to be 0.4 µM.

The compound `CCC(CC)OC(=O)c1cn(Cc2ccccc2F)c2c(C#N)c(-c3ccc(OCC(C)C)cc3)c(CN(C)CCc3ccccn3)n2c1=O` showed a Ki of 0.025 µM.

Compound `CCOC(=O)c1cn(Cc2ccccc2F)c2c(C#N)c(-c3ccc(OCC(C)C)cc3)c(CN(C)CCc3ccccn3)n2c1=O` registered a Ki of 0.1 µM.

As for `CCOC(=O)c1cn(Cc2ccccc2)c2c(C#N)c(-c3ccc(OC)cc3)c(CN(C)Cc3ccccc3)n2c1=O`, the Ki was determined as 42 µM.

In the case of `CCOC(=O)c1cn(Cc2ccc(F)cc2F)c2c(C#N)c(-c3ccc(OCC(C)C)cc3)c(CN(C)CCc3ccccn3)n2c1=O`, the inhibition constant (Ki) was 0.4 µM.

Take `CCOC(=O)c1cn(Cc2ccccc2)c2c(C#N)c(-c3ccc(OC)cc3)c(CN(C)C)n2c1=O`: the inhibition constant (Ki) was greater than 50 µM.

Regarding `COc1ccc(-c2c(C#N)c3n(Cc4ccccc4F)cc(C(=O)OC4CCCC4)c(=O)n3c2CN(C)CCc2ccccn2)cc1`, the affinity, expressed as Ki, was 0.26 µM.

For the compound `CCOC(=O)c1cn(Cc2ccccc2OC)c2c(C#N)c(-c3ccc(OCC(C)C)cc3)c(CN(C)CCc3ccccn3)n2c1=O`, the Ki is 2.2 µM.

Consider `CCC(CC)OC(=O)c1cn(Cc2ccccc2F)c2c(C#N)c(-c3ccc(OC)cc3)c(CN(C)CCc3ccccn3)n2c1=O`, for which affinity was put at a Ki of 0.18 µM.

In turn, `CCOC(=O)c1cn(Cc2ccc(F)cc2F)c2c(C#N)c(-c3ccc(OC)cc3)c(CN(C)CCc3ccccn3)n2c1=O` returned a Ki of 3.7 µM.

Regarding `CN(CCc1ccccn1)Cc1c(-c2ccc(OC3CCCC3)cc2)c(C#N)c2n(Cc3ccccc3F)cc(C(=O)OC3CCCC3)c(=O)n12`, the inhibition constant Ki was 0.033 µM.

With `CCOC(=O)c1cn(Cc2c(F)cccc2F)c2c(C#N)c(-c3ccc(OCC(C)C)cc3)c(CN(C)CCc3ccccn3)n2c1=O`, the affinity corresponds to a Ki of 0.8 µM.

Regarding `CCOC(=O)c1cn(Cc2ccc(F)cc2F)c2c(C#N)c(-c3ccc(OCC(C)C)cc3)c(CN(C)CCc3cccnc3)n2c1=O`, the affinity corresponds to a Ki of 28 µM.

Compound `CCOC(=O)c1cn(Cc2ccccc2)c2c(C#N)c(-c3ccc(OC)cc3)c(CN(C)CCc3ccccn3)n2c1=O` gave a Ki of 2.6 µM.

For the compound `CCOC(=O)c1cn(Cc2c(F)cccc2F)c2c(C#N)c(-c3ccc(OC)cc3)c(CN(C)CCc3ccccn3)n2c1=O`, the Ki came to 2 µM.

Take `CCOC(=O)c1cn(Cc2ccccc2F)c2c(C#N)c(-c3ccc(OC)cc3)c(CN(C)Cc3ccccc3)n2c1=O`: the affinity corresponds to a Ki of 1.8 µM.

`CCOC(=O)c1cn(CC2CC2)c2c(C#N)c(-c3ccc(OC)cc3)c(CN(C)CCc3ccccn3)n2c1=O` displayed a Ki greater than 50 µM.

Compound `CCOC(=O)c1cn(Cc2cc(F)ccc2F)c2c(C#N)c(-c3ccc(OC)cc3)c(CN(C)CCc3ccccn3)n2c1=O` showed an inhibition constant (Ki) of 6 µM.

`CCOC(=O)c1cn(Cc2cccc(F)c2F)c2c(C#N)c(-c3ccc(OC)cc3)c(CN(C)CCc3ccccn3)n2c1=O`: affinity was put at a Ki of 2.4 µM.

In the case of `CCOC(=O)c1cn(Cc2ccccc2C#N)c2c(C#N)c(-c3ccc(OC)cc3)c(CN(C)CCc3ccccn3)n2c1=O`, affinity was put at a Ki of 4.9 µM.

On to `COc1ccc(-c2c(C#N)c3n(Cc4ccccc4F)cc(C(=O)OC(C4CC4)C4CC4)c(=O)n3c2CN(C)CCc2ccccn2)cc1`, for which the Ki turned out to be 2.5 µM.

The compound `CCOC(=O)c1cn(Cc2cc(F)ccc2F)c2c(C#N)c(-c3ccc(OCC(C)C)cc3)c(CN(C)CCc3ccccn3)n2c1=O` yielded a Ki of 1.2 µM.

With `CCOC(=O)c1cn(Cc2ccc(F)cc2F)c2c(C#N)c(-c3ccc(OCC(C)C)cc3)c(CN(C)CCc3ccncc3)n2c1=O`, the inhibition constant (Ki) was greater than 50 µM.

The compound `COc1ccc(-c2c(C#N)c3n(Cc4ccccc4F)cc(C(=O)OC4CCOC4)c(=O)n3c2CN(C)CCc2ccccn2)cc1` (configuration not stated) returned an inhibitory constant (Ki) of 2.1 µM.

Consider `CCOC(=O)c1cn(Cc2ccccc2Cl)c2c(C#N)c(-c3ccc(OC)cc3)c(CN(C)CCc3ccccn3)n2c1=O`, for which the Ki worked out at 8.5 µM.

For the origin of these results see ChEMBL document CHEMBL1135038, “Initial structure-activity relationship studies of a novel series of pyrrolo[1,2-a]pyrimid-7-ones as GnRH receptor antagonists” (Bioorg Med Chem Lett, 2002).
